# Where two headings read alike, the source gives them in different places.
# Experiments:
# [1] = Pharmacokinetic study in rats after intragastric and intravenous administration (UHPLC-MS/MS of plasma); assay type: in vivo, Sprague–Dawley rats; conditions: for MRT inf: n = 6, read-out: MRT0–∞; for k el: n = 6, read-out: ke (converted); for bioavailability: F = Doseiv × AUCig/(Doseig × AUCiv) × 100%, read-out: absolute bioavailability (F)
# Method: (§1) Sprague–Dawley rats (250 ± 20 g) were supplied from the Experimental Animal Centre of China Medical University (Shenyang, China) and housed under unified conditions. All of the animal experiments were conducted in compliance with the Guidelines for Care and Use of Laboratory Animals of China Medical University and the protocols were approved by the Animal Ethics Committee of the institution (code number: CMU2023205). The rats were raised in a standard environment with a temperature of 24 ± 2 °C, relative humidity of 55 ± 10%, and 12 h light/12 h dark cycles. These rats were acclimatized to the environment for at least one week before the experiment, provided free access to drinking water, and fed during this period. Twenty-four SD rats, which were divided into four groups (six rats per group), received 5 mg/kg itampolin A by intravenous administration or 10, 25, and 50 mg/kg itampolin A by intragastric administration for the pharmacokinetics experiments. Twenty SD rats (five rats for each time point) received 25 mg/kg itampolin A by intragastric administration for the tissue distribution study.
# The simple protein precipitation extraction technique using methanol as the precipitating solvent was applied to extract itampolin A and IS from biological samples [23, 24]. The 100 µL of plasma sample, 50 µL of IS working solution, and 200 µL of methanol were added in 500 µL microcentrifuge tubes to precipitate proteins. After vortexing for 1 min, the samples were centrifuged at 12,000 rpm for 10 min to remove the denatured protein. Subsequently, the supernatant was transferred into another tube and evaporated to dryness with a stream of nitrogen at 35 °C. The remains were reconstituted in 100 µL of initial mobile phase, briefly vortexed, and centrifuged at 12,000 rpm for 10 min. Then, 10 µL of the supernatant was transferred to sampling vials for the UHPLC-MS/MS system.
# For both intragastric and intravenous administration, itampolin A was dissolved in polyethylene glycol (PEG)-saline (1:3, PEG: 380–420) for the preparation of dosing solutions. Eighteen Sprague–Dawley rats were divided into three groups randomly (six rats each). The rats of each group were weighed, and then given a single dose of 10 mg/kg, 25 mg/kg, and 50 mg/kg itampolin A via intragastric administration, respectively. Blood samples (200 µL) were obtained from orbital vein into heparinized centrifuge tubes at 0.083, 0.25, 0.5, 0.75, 1, 1.5, 2, 3, 4, 6, 8, 12, and 24 h after drug administration.
# Six Sprague–Dawley rats were weighed, and then given a single dose of 5 mg/kg of itampolin A via intravenous administration. Blood samples (200 µL) were obtained from orbital vein into heparinized centrifuge tubes at 0.033, 0.083, 0.167, 0.25, 0.5, 0.75, 1, 1.5, 2, 3, 4, 8, and 12 h after drug administration. The blood samples obtained from both intragastric and intravenous administration were immediately separated by centrifugation at 12,000 rpm for 10 min, and then the supernatant plasma was gathered and stored at −20 °C prior to analysis.
# The pharmacokinetic parameters were calculated by non-compartmental model using the DAS 3.2.8 software. All data were presented as mean ± SD.
# [2] = Tissue distribution study in rats after intragastric administration; assay type: in vivo, Sprague–Dawley rats; conditions: intragastric 25 mg/kg
# Method: as §1
# Various tissues (heart, liver, spleen, lung, kidney, brain, intestine, and stomach) were harvested and washed with ice-cold 0.9% sodium chloride solution to remove the superficial blood. After being blotted dry with filter paper, each tissue sample weighed accurately was homogenized in 0.9% sodium chloride solution (1:5, w/v). Then, 100 µL of tissue homogenate was taken and processed further like the plasma sample.
# Twenty Sprague–Dawley rats were randomly divided into four groups (five rats each) and received a single dose of 25 mg/kg of itampolin A via intragastric administration. The rats were executed by cervical dislocation at 1, 4, 8, and 12 h. Afterwards, various tissue samples, including heart, liver, spleen, lung, kidney, brain, intestine, and stomach, were collected into centrifuged tubes, and then processed with the methods described in “3.5. Sample Preparation”.
# [3] = Solubility in normal saline; assay type: physicochemical
# [4] = system: non-small-cell lung cancer; design: method as in doi:10.2174/1570179414666170215092631; conditions: cited from earlier work
# [5] = system: p38α; design: method as in PMID 30642059; conditions: binding to the DFG-out conformation of p38α; cited from earlier work
# [6] = Sprague-Dawley, rat, iv, i.v. 5 mg/kg, plasma, mean ± SD, n = 6
# [7] = Sprague-Dawley, rat, iv, i.v. 5 mg/kg, plasma, mean ± SD
# [8] = Sprague-Dawley, rat, plasma, iv, 5 mg/kg, i.v. 5 mg/kg, mean ± SD, n = 6
# [9] = Sprague-Dawley, rat, plasma, po, 10 mg/kg, i.g. low dose 10 mg/kg, mean ± SD, n = 6
# [10] = Sprague-Dawley, rat, plasma, po, 25 mg/kg, i.g. mid dose 25 mg/kg, mean ± SD, n = 6
# [11] = Sprague-Dawley, rat, plasma, po, 50 mg/kg, i.g. high dose 50 mg/kg, mean ± SD, n = 6
# [12] = Sprague-Dawley, rat, po, i.g. high dose 50 mg/kg, plasma, mean ± SD, n = 6
# [13] = Sprague-Dawley, rat, po, i.g. high dose 50 mg/kg, plasma, mean ± SD
# [14] = Sprague-Dawley, rat, po, i.g. low dose 10 mg/kg, plasma, mean ± SD, n = 6
# [15] = Sprague-Dawley, rat, po, i.g. low dose 10 mg/kg, plasma, mean ± SD
# [16] = Sprague-Dawley, rat, po, i.g. mid dose 25 mg/kg, plasma, mean ± SD, n = 6
# [17] = Sprague-Dawley, rat, po, i.g. mid dose 25 mg/kg, plasma, mean ± SD
# [18] = i.g. high dose 50 mg/kg, plasma, mean ± SD, n = 6
# [19] = i.g. low dose 10 mg/kg, plasma, mean ± SD, n = 6
# [20] = i.g. mid dose 25 mg/kg, plasma, mean ± SD, n = 6
# [21] = intragastric 10, 25 and 50 mg/kg
# [22] = measured within 12 h, mean ± SD, n = 5
smiles,measurement,setting,value
"COc1c(Br)cc(C[C@H](NC(=O)Cc2ccc(OCCCNC(C)=O)cc2)C(=O)NCCc2cc(Br)c(O)c(Br)c2)cc1Br [itampolin A, Itampolin A]",AUC(0-inf),[1]; [6],2830 ± 110 ng·h/mL
same,AUC(0-t),[1]; [6],978 ± 26.2 ng·h/mL
same,Cmax,[1]; [6],1340 ± 52.2 ng/mL
same,clearance,[1]; [6],30 mL/min/kg
same,MRT inf,[1]; [7],4.8 ± 0.3 h
same,Vd,"[1]; Sprague-Dawley, rat, iv, i.v. 5 mg/kg, plasma, mean ± SD, n = 6, read-out: Vd",6.6 ± 0.4 L/kg
same,k el,[1]; [7],7.5e-05 s⁻¹
same,Tmax,[1]; [8],0.03 h
same,half-life,[1]; [8],2.6 ± 0.2 h
same,bioavailability,"[1]; Sprague-Dawley, rat, plasma, oral dose 10 mg/kg vs i.v. 5 mg/kg",18.8%
same,bioavailability,"[1]; Sprague-Dawley, rat, plasma, oral dose 25 mg/kg vs i.v. 5 mg/kg",13.7%
same,bioavailability,"[1]; Sprague-Dawley, rat, plasma, oral dose 50 mg/kg vs i.v. 5 mg/kg",11.2%
same,Tmax,[1]; [9],1.7 ± 0.2 h
same,half-life,[1]; [9],2.6 ± 0.3 h
same,Tmax,[1]; [10],1.7 ± 0.2 h
same,half-life,[1]; [10],2.3 ± 0.2 h
same,Tmax,[1]; [11],0.9 ± 0.1 h
same,half-life,[1]; [11],2.1 ± 0.2 h
same,half-life,"[1]; Sprague-Dawley, rat, plasma, po, 50 mg/kg, intragastric 10, 25 and 50 mg/kg, range over the three doses",2.1 to 2.6 h
same,Tmax,"[1]; Sprague-Dawley, rat, plasma, po, 50 mg/kg, intragastric 10, 25 and 50 mg/kg, summary over the three doses",< 1.7 h
same,AUC(0-inf),[1]; [12],3190 ± 94.7 ng·h/mL
same,AUC(0-t),[1]; [12],2640 ± 44.6 ng·h/mL
same,Cmax,[1]; [12],807 ± 36.9 ng/mL
same,MRT inf,[1]; [13],3.7 ± 0.2 h
same,k el,[1]; [13],9.17e-05 s⁻¹
same,AUC(0-inf),[1]; [14],1080 ± 55.8 ng·h/mL
same,AUC(0-t),[1]; [14],939 ± 34.9 ng·h/mL
same,Cmax,[1]; [14],283 ± 20 ng/mL
same,MRT inf,[1]; [15],4.6 ± 0.5 h
same,k el,[1]; [15],7.5e-05 s⁻¹
same,AUC(0-inf),[1]; [16],1940 ± 116 ng·h/mL
same,AUC(0-t),[1]; [16],1540 ± 44.9 ng·h/mL
same,Cmax,[1]; [16],412 ± 13.7 ng/mL
same,MRT inf,[1]; [17],4.2 ± 0.3 h
same,k el,[1]; [17],8.33e-05 s⁻¹
same,CL,[1]; [18],207 ± 6.7 mL/min/kg
same,Vd,[1]; [18],44.6 ± 2.8 L/kg
same,CL,[1]; [19],185 ± 8.3 mL/min/kg
same,Vd,[1]; [19],42.2 ± 2.9 L/kg
same,CL,[1]; [20],215 ± 13 mL/min/kg
same,Vd,[1]; [20],43.9 ± 1.7 L/kg
same,correlation coefficient of AUC0–t versus dose (dose linearity),[1]; [21],0.999
same,correlation coefficient of AUC0–∞ versus dose (dose linearity),[1]; [21],0.998
same,correlation coefficient of Cmax versus dose (dose linearity),[1]; [21],0.981
same,concentration in the brain,[2],lower concentration in the brain
same,distribution in the heart and spleen,[2],low distribution level and rapid elimination
same,highest concentration in intestine,[2]; [22],378.2 ± 36.8 ng/mL
same,highest concentration in kidney,[2]; [22],497.7 ± 51.9 ng/mL
same,highest concentration in liver,[2]; [22],418.8 ± 40.3 ng/mL
same,highest concentration in lung,[2]; [22],800.6 ± 79.0 ng/mL
same,highest concentration in stomach,[2]; [22],429.6 ± 27.2 ng/mL
same,solubility in normal saline,[3],small
same,anticancer activity against non-small-cell lung cancer,[4],significant anticancer activity
same,phospho-p38α expression,[5],decreasing the phospho-p38α expression

# Reference: publication PMC11173508, “Pharmacokinetics and Tissue Distribution of Itampolin A following Intragastric and Intravenous Administration in Rats Using Ultra-High-Performance Liquid Chromatography–Tandem Mass Spectrometry” (Molecules, 2024)
